Measured values from BindingDB's records for doi:10.1016/j.bmcl.2008.07.062 (The Scripps Research Institute, 2008).

What was measured:
[1] = Inhibition of Blk expressed in mouse BAF3 cells assessed as cytotoxicity
[2] = Inhibition of JAK3 expressed in mouse BAF3 cells assessed as cytotoxicity

C=CC(=O)Nc1ccc2ncnc(Nc3cccc(Br)c3)c2c1
IC50 [1]: > 10 µM | IC50 [2]: > 10 µM
